Test results from patent US20260256873A1, “MODIFIED CAVEOLIN-1 PEPTIDE FORMULATIONS AND METHODS OF MANUFACTURING AND USE THEREOF” (LUNG THERAPEUTICS, INC., priority 2022, published 2026).
Several values for one entry are separate records, joined by “and”; a condition that tells them apart may be missing. Equal values may be shown once. Read-outs that look alike come from different tables or passages of the source. Where a SMILES comes first, the peptide text is derived from it. [ ]: non-standard residue; d: D form.

Legend:
[1] = APi2355 concentrations in various tissues at 42 days post treatment (LC/MS/MS); format: in vivo; conditions: male, Sprague Dawley, rat, sc, 2 mg/kg, mean of 6 rats, single SC 2.0 mg/kg in SAIB formulation
Procedure: (§1) The plasma pharmacokinetics of the Cav-1 peptide (APi2355) SAIB formulation prepared according to Example 1 (5.66% w/w APi2355 75.47% w/w SAIB and 18.87% w/w NMP to provide 7% w/w APi2355 to 93% w/w SAIB) were assessed over 42 days after a single-dose subcutaneous administration to male Sprague Dawley rats. The rats (n=6) received one of three batches of the APi2355 SAIB formulations prepared according to Example 1 at a dose of 2.0 mg/kg of APi2355 in 0.033 mL/kg (concentration 60.0 mg/mL). Control group of rats (n=2) received an injection of vehicle formulation containing no APi2355.
(§2) Animals were assigned to groups by a stratified randomization scheme designed to achieve similar group mean body weights. The animals were acclimated to their designated housing for at least 5 days before the day dosing. All formulations were administered in a single dose by dorsal subcutaneous (SC) injection on day 0. Whole blood samples (40-50 μl) were collected from all animals in APi2355 treated group at pre-dose and 1 h, 2 h, 4 h, 8 h, 1 day, 2 days, 4 days, 7 days, 10 days, 14 days, 21 days, 29 days, and 35 days post-treatment. Whole blood samples (40-50 μl, by tail nick) were collected from all animals in control group at pre-dose and at 1 h and 1 day post-treatment. Blood was collected into K2EDTA tubes. Tubes were mixed gently after blood collection, chilled and centrifuged at 3000 rpm and 4° C., within 30 minutes upon collection. The resultant plasma was separated, transferred to uniquely labeled polypropylene tubes and frozen at −20° C. Plasma and tissue samples were analyzed for concentration of APi2355 using a qualified analytical procedure for LC/MS/MS.
(§3) Terminal whole blood samples (maximal volume by cardiac stick) and tissues were collected from all animals on day 42 post-treatment. Tissues included tissues from heart, liver, kidney, lung, and injection site skin patches. Additionally, lungs were processed for bronchial lavage samples. Tissue samples were analyzed for APi2355 by LC/MS/MS.

[2] = Plasma pharmacokinetics of the APi2355 SAIB formulation over 42 days after single-dose subcutaneous administration; format: in vivo, male Sprague Dawley rats; conditions: for Tmax: sc
Procedure: as §1
as §2, with “Whole blood samples (40-50 μl) were collected from all animals in APi2355 treated group at pre-dose and 1 h, 2 h, 4 h, 8 h, 1 day, 2 days, 4 days, 7 days, 10 days, 14 days, 21 days, 29 days, and 35 days post-treatment.” left out
as §3

[3] = individual rats, single SC 2.0 mg/kg APi2355 in SAIB formulation, 2 mg/kg
[4] = rat plasma, single SC 2.0 mg/kg in SAIB formulation

`CC(=O)N[C@H](C)C(=O)N[C@H](C)C(=O)N[C@@H](CCC(=O)O)C(=O)NCC(=O)N[C@@H](CCCCN)C(=O)N[C@@H](C)C(=O)N[C@@H](CO)C(=O)N[C@@H](Cc1ccccc1)C(=O)N[C@H](C(=O)N[C@H](C(=O)N[C@@H](Cc1ccccc1)C(=O)N[C@H](C(=O)N[C@H](C(=O)N[C@H](C(=O)N[C@@H](CCCCN)C(=O)NCC(=O)N[C@@H](CO)C(=O)N[C@H](C)C(=O)N[C@H](C)C(N)=O)[C@@H](C)O)C(C)C)[C@@H](C)O)[C@@H](C)O)[C@@H](C)O` [APi2355, Ac-aaEGKASFTTFTVTKGSaa-NH2] (Ac-[dA][dA]EGKASFTTFTVTKGS[dA][dA]-NH2) gave a level at 1008 h ([1]; bronchoalveolar lavage fluid (BALF), read-out: Concentration in BALF (bronchoalveolar lavage fluid), Mean) of 0.99 ng/mL, a tissue level at time at 1008 h ([1]; heart, read-out: Concentration in Heart, Mean) of 12.1 ng/g and a tissue level at time at 1008 h ([1]; injection site skin, injection site skin, read-out: Concentration in Skin, Mean) of 4.95 ng/g. The tissue level at time at 1008 h ([1]; kidney, read-out: Concentration in Kidney, Mean) was 53.2 ng/g, the tissue level at time at 1008 h ([1]; liver, read-out: Concentration in Liver, Mean) was 1.23 ng/g and the tissue level at time at 1008 h ([1]; lung, read-out: Concentration in Lung, Mean) was 68 ng/g. For the same compound, the “AUC0-14, Mean” value ([2]; dose to day 14, rat plasma, single SC 2.0 mg/kg in SAIB formulation) was 126 ng·days/mL, the “AUC0-22, Mean” value ([2]; dose to day 22, rat plasma, single SC 2.0 mg/kg in SAIB formulation) was 146 ng·days/mL and the “AUCinf, Mean” value ([2]; extrapolated to infinity (AUClast + Clast/λz), rat plasma, single SC 2.0 mg/kg in SAIB formulation) was 183 ng·days/mL. For the same compound, the CL/F ([2]; in vivo, apparent plasma clearance, rat, single SC 2.0 mg/kg in SAIB formulation) was 6.94 mL/min/kg, the Vd/F ([2]; in vivo, apparent volume of distribution, terminal phase, rat, single SC 2.0 mg/kg in SAIB formulation, read-out: Vz/F, Mean) was 133 L/kg and the AUC(0-t) ([2]; in vivo, log/linear trapezoidal method, rat plasma, single SC 2.0 mg/kg in SAIB formulation, read-out: AUClast, Mean (converted)) was 3940 ng·h/mL. For the same compound, the Cmax ([2]; in vivo, rat plasma, single SC 2.0 mg/kg APi2355 in SAIB formulation) was 477 ng/mL, the half-life ([2]; in vivo, rat plasma, single SC 2.0 mg/kg in SAIB formulation, read-out: Half-life (terminal), Mean (converted)) was 222 h and the MRT last ([2]; in vivo, rat plasma, single SC 2.0 mg/kg in SAIB formulation, read-out: MRTlast, Mean (converted)) was 188 h. For the same compound, the “APi2355 plasma concentration 1 hr post-treatment” value [2, 3] was 202.00 ng/mL and 232.90 ng/mL and 109.02 ng/mL and 101.53 ng/mL and 84.70 ng/mL and 557.93 ng/mL, the “APi2355 plasma concentration 2 hr post-treatment” value [2, 3] was 884.98 ng/mL and 111.43 ng/mL and 37.62 ng/mL and 317.55 ng/mL and 539.82 ng/mL and 497.89 ng/mL and the “APi2355 plasma concentration 4 hr post-treatment” value [2, 3] was 26.95 ng/mL and 102.25 ng/mL and 328.27 ng/mL and 164.91 ng/mL and 97.42 ng/mL and 52.01 ng/mL. For the same compound, the “APi2355 plasma concentration 8 hr post-treatment” value [2, 3] was 23.90 ng/mL and 54.20 ng/mL and 80.69 ng/mL and 75.60 ng/mL and 47.06 ng/mL and 39.24 ng/mL, the “APi2355 plasma concentration 1 day post-treatment” value [2, 3] was 10.32 ng/mL and 11.86 ng/mL and 20.55 ng/mL and 12.72 ng/mL and 19.85 ng/mL and 25.11 ng/mL and the “APi2355 plasma concentration 2 day post-treatment” value [2, 3] was 6.13 ng/mL and 3.87 ng/mL and 2.54 ng/mL and 8.72 ng/mL and 14.40 ng/mL and 6.90 ng/mL. For the same compound, the “APi2355 plasma concentration 4 day post-treatment” value [2, 3] was 4.65 ng/mL and 3.40 ng/mL and 1.29 ng/mL and 2.17 ng/mL and 1.84 ng/mL and 1.41 ng/mL, the “APi2355 plasma concentration 7 day post-treatment” value [2, 3] was 15.91 ng/mL and 5.07 ng/mL and 2.40 ng/mL and 2.14 ng/mL and 5.18 ng/mL and 1.44 ng/mL and the “APi2355 plasma concentration 10 day post-treatment” value [2, 3] was 2.09 ng/mL and 2.04 ng/mL and 10.43 ng/mL and 5.54 ng/mL and 2.38 ng/mL and 1.58 ng/mL. The “APi2355 plasma concentration 14 day post-treatment” value [2, 3] was 1.66 ng/mL and 1.24 ng/mL and 7.00 ng/mL and 1.83 ng/mL and 1.64 ng/mL and 3.04 ng/mL, the “APi2355 plasma concentration 22 day post-treatment” value [2, 3] was 1.68 ng/mL and 1.87 ng/mL and 2.49 ng/mL and 5.68 ng/mL and 1.98 ng/mL and 1.93 ng/mL and the “APi2355 plasma concentration 29 day post-treatment” value [2, 3] was 0.98 ng/mL and 0.50 ng/mL and 0.85 ng/mL and 0.65 ng/mL and 0.58 ng/mL and 0.16 ng/mL. The “APi2355 plasma concentration 35 day post-treatment” value [2, 3] was 0.81 ng/mL and 1.13 ng/mL and 0.78 ng/mL and 0.10 ng/mL and 0.72 ng/mL and 4.20 ng/mL, the “APi2355 plasma concentration 42 day post-treatment” value [2, 3] was 0.88 ng/mL and 0.29 ng/mL and 0.15 ng/mL and 0.00 ng/mL (2×) and 0.04 ng/mL and the “Clast, Mean” value ([2]; last measurable concentration, rat plasma, single SC 2.0 mg/kg in SAIB formulation) was 0.942 ng/mL. The level at 1 h ([2]; male, Sprague Dawley, rat, plasma, mean of 6 rats, single SC 2.0 mg/kg APi2355 in SAIB formulation, read-out: APi2355 plasma concentration 1 hr post-treatment, Mean) was 215 ng/mL, the level at 2 h ([2]; male, Sprague Dawley, rat, plasma, mean of 6 rats, single SC 2.0 mg/kg APi2355 in SAIB formulation, read-out: APi2355 plasma concentration 2 hr post-treatment, Mean) was 398 ng/mL and the level at 4 h ([2]; male, Sprague Dawley, rat, plasma, mean of 6 rats, single SC 2.0 mg/kg APi2355 in SAIB formulation, read-out: APi2355 plasma concentration 4 hr post-treatment, Mean) was 129 ng/mL. For the same compound, the level at 8 h ([2]; male, Sprague Dawley, rat, plasma, mean of 6 rats, single SC 2.0 mg/kg APi2355 in SAIB formulation, read-out: APi2355 plasma concentration 8 hr post-treatment, Mean) was 53.5 ng/mL, the level at 24 h ([2]; male, Sprague Dawley, rat, plasma, mean of 6 rats, single SC 2.0 mg/kg APi2355 in SAIB formulation, read-out: APi2355 plasma concentration 1 day post-treatment, Mean) was 16.7 ng/mL and the level at 48 h ([2]; male, Sprague Dawley, rat, plasma, mean of 6 rats, single SC 2.0 mg/kg APi2355 in SAIB formulation, read-out: APi2355 plasma concentration 2 day post-treatment, Mean) was 7.09 ng/mL. For the same compound, the level at 96 h ([2]; male, Sprague Dawley, rat, plasma, mean of 6 rats, single SC 2.0 mg/kg APi2355 in SAIB formulation, read-out: APi2355 plasma concentration 4 day post-treatment, Mean) was 2.46 ng/mL, the level at 168 h ([2]; male, Sprague Dawley, rat, plasma, mean of 6 rats, single SC 2.0 mg/kg APi2355 in SAIB formulation, read-out: APi2355 plasma concentration 7 day post-treatment, Mean) was 5.36 ng/mL and the level at 240 h ([2]; male, Sprague Dawley, rat, plasma, mean of 6 rats, single SC 2.0 mg/kg APi2355 in SAIB formulation, read-out: APi2355 plasma concentration 10 day post-treatment, Mean) was 4.01 ng/mL. It also gave a level at 336 h ([2]; male, Sprague Dawley, rat, plasma, mean of 6 rats, single SC 2.0 mg/kg APi2355 in SAIB formulation, read-out: APi2355 plasma concentration 14 day post-treatment, Mean) of 2.73 ng/mL, a level at 528 h ([2]; male, Sprague Dawley, rat, plasma, mean of 6 rats, single SC 2.0 mg/kg APi2355 in SAIB formulation, read-out: APi2355 plasma concentration 22 day post-treatment, Mean) of 2.61 ng/mL and a level at 696 h ([2]; male, Sprague Dawley, rat, plasma, mean of 6 rats, single SC 2.0 mg/kg APi2355 in SAIB formulation, read-out: APi2355 plasma concentration 29 day post-treatment, Mean) of 0.62 ng/mL. For the same compound, the level at 840 h ([2]; male, Sprague Dawley, rat, plasma, mean of 6 rats, single SC 2.0 mg/kg APi2355 in SAIB formulation, read-out: APi2355 plasma concentration 35 day post-treatment, Mean) was 1.29 ng/mL, the level at 1008 h ([2]; male, Sprague Dawley, rat, plasma, mean of 6 rats, single SC 2.0 mg/kg APi2355 in SAIB formulation, read-out: APi2355 plasma concentration 42 day post-treatment, Mean) was 0.23 ng/mL and the “APi2355 detectable in the plasma following administration” value ([2]; number of rats, single SC 2.0 mg/kg in SAIB formulation) was 4 out of 6. For the same compound, the “% AUC Extrap, Mean” value [2, 4] was 9.00%, the “extrapolated AUC of AUCinf” value [2, 4] was less than 20% and the “fraction of the total exposure of APi2355 occurring in the first 3 weeks after SC administration” value [2, 4] was “Approximately ⅔”. The Tmax ([2]; rat, in vivo, 2 mg/kg, rat plasma, single SC 2.0 mg/kg APi2355 in SAIB formulation, read-out: Tmax, Mean (converted)) was 1.99 h, the Tmax ([2]; rat, in vivo, 2 mg/kg, rat plasma, single SC 2.0 mg/kg APi2355 in SAIB formulation, read-out: Tmax, median (converted)) was 1.99 h and the “Tlast, Mean” value ([2]; time of last quantifiable concentration, rat plasma, single SC 2.0 mg/kg in SAIB formulation) was 39.7 days.
